Tests used:
RPS25 mRNA = assay: RPS25 siRNA knockdown, northern analysis of RPS25 mRNA level; type: cell-based, human; conditions: Huh7.13 cells, transient siRNA transfection, 72 hours, RPS25 mRNA normalized to β-actin mRNA, relative to control
Method: (§1) The day before transfection, 5×10^4 HeLa cells were seeded into 24-well plates. Once the cells reached 90% confluency, transfection of dual luciferase reporters was done using Lipofectamine 2000 (Invitrogen) according to the manufacturer's recommendations using 0.4 μg DNA per well. Cells were harvested for luciferase analysis after 24 hours. Double stranded RPS25 siRNAs, 5′-GGACUUAUCAAACUGGUUUtt-3′ (SEQ ID NO:3) and 5′-AAACCAGUUUGAUAAGUCCtt-3′ (SEQ ID NO:4) (Ambion, siRNA ID #142220), were used to knock down RPS25 in Huh7 cells. The Dicector™ DS (IDT; Coralville, Iowa) scrambled negative control duplex was used as a negative control. siRNA complexes were prepared in opti-MEM (Invitrogen) with 5 μl siPORT NeoFX transfection agent to a final siRNA concentration of 0.375 μM according to the manufacturer's specifications. siRNA complexes were plated and overlaid with 2×10^5 Huh7.13 cells in antibiotic-free media. The transfection media was replaced with complete media after 24 hours.
Total RNA was harvested with TRIzol (Invitrogen) according to the manufacturer's protocol from shRNA lentiviral transduced cells. […]

HCV (JFH1, genotype 2a) = assay: HCV amplification in RPS25 knockdown Huh7.13 cells, quantitative western analysis for NS5A; type: cell-based, hepatitis C virus; conditions: Huh7.13 cells infected with HCV at low MOI, 72 hours after infection, versus non-targeting control siRNA
Method: as §1
The HCV infection was carried out by inoculating Huh7.13 cells with 1 ml of culture medium from the HCV producer cell line Huh7 JFH1 HCV (genotype 2a). […]
Cells were lysed in E1 lysis buffer with 0.1% SDS. […] Signals were detected using flororchrome-conjugated secondary antibody for quantitative western blotting using the Odyssey scanner and software (LI-COR; Lincoln, Nebr.).

Substance: siRNA that targets RPS25: Double stranded RPS25 siRNAs 5′-GGACUUAUCAAACUGGUUUtt-3′ (SEQ ID NO:3) and 5′-AAACCAGUUUGAUAAGUCCtt-3′ (SEQ ID NO:4), Ambion (chain 1 GGACUUAUCAAACUGGUUUTT; chain 2 AAACCAGUUUGAUAAGUCCTT; chemistry not given here)
- RPS25 knockdown effectiveness (RPS25 mRNA level) (RPS25 mRNA): over 95%
- HCV NS5A protein expression (HCV amplification) (HCV (JFH1, genotype 2a)): not detected

— patent US20150105433A1, “TREATING VIRAL INFECTIONS HAVING VIRAL RNAs TRANSLATED BY A NON-IRES MEDIATED MECHANISM” (THE UAB RESEARCH FOUNDATION, priority 2012, published 2015)
